In US20240270821A1, “GIP/GLP1/GCG TRI-RECEPTOR AGONISTS AND USES THEREOF” (priority 2023, published 2024):
Read-outs that look alike come from different tables or passages of the source. Starred links: 1 amine or outer side, 2 acyl side, 3 side chain; linkers in the order of their positions; H or OH if unused. Non-standard residues stand in square brackets, D forms with d. Groups on a side chain read outwards from the residue. *: point of attachment. C18 diacid = O=C(O)CCCCCCCCCCCCCCCCC(=O)*; αMePhe(2-F) = C[C@](N)(Cc1ccccc1F)C(=O)O; γGlu = O=C(O)[C@H](CCC(=O)[*:2])N[*:1]; αMe4Pal = C[C@](N)(Cc1ccncc1)C(=O)O; αMeY = C[C@](N)(Cc1ccc(O)cc1)C(=O)O; 4Pal = N[C@@H](Cc1ccncc1)C(=O)O; αMeL = CC(C)C[C@](C)(N)C(=O)O; αMeS = C[C@](N)(CO)C(=O)O; Orn = NCCC[C@H](N)C(=O)O; AEEA = NCCOCCOCC(=O)O; Aib = CC(C)(N)C(=O)O

Key:
Format in all cases: cell-based
hGIPR [1] = target: T1, hGIPR (Homo sapiens, UniProt P48546); assay: Functional cAMP activity in the presence of 1% HSA; conditions: read-out: cAMP Rel EC50, hGIPR
T1 sequence (P48546 22-466): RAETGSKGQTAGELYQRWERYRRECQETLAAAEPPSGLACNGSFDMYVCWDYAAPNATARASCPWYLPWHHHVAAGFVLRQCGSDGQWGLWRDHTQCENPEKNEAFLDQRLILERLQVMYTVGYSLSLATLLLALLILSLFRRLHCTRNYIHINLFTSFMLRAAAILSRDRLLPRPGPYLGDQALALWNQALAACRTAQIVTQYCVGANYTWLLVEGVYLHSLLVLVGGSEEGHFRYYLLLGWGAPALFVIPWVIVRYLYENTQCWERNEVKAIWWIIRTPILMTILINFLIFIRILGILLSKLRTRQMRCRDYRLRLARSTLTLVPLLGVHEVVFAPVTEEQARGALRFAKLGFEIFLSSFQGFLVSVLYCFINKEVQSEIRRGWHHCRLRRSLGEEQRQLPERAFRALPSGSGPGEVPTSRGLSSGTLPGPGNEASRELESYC

hGLP-1R [2] = target: T2, hGLP-1R (Homo sapiens, UniProt P43220); assay: Functional cAMP activity in the presence of 1% HSA; conditions: read-out: cAMP Rel EC50, hGLP-1R
T2 sequence (P43220 24-463): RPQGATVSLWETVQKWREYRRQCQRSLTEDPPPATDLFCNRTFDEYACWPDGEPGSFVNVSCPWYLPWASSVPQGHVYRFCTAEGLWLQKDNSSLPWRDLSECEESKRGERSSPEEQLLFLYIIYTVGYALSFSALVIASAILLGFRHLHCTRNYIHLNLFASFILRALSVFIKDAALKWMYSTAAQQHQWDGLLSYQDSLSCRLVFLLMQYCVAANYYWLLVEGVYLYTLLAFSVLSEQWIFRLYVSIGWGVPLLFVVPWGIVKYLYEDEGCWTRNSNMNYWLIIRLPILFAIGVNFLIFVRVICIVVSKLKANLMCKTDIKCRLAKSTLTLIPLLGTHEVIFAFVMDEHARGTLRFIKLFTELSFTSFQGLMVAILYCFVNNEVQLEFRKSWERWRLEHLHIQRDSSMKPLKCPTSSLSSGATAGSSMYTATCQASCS

human GcgR = human GcgR (Homo sapiens, UniProt P47871); assay: Functional cAMP activity in the presence of 1% HSA; conditions: read-out: cAMP Rel EC50, hGcgR
Chain of human GcgR (P47871 26-477): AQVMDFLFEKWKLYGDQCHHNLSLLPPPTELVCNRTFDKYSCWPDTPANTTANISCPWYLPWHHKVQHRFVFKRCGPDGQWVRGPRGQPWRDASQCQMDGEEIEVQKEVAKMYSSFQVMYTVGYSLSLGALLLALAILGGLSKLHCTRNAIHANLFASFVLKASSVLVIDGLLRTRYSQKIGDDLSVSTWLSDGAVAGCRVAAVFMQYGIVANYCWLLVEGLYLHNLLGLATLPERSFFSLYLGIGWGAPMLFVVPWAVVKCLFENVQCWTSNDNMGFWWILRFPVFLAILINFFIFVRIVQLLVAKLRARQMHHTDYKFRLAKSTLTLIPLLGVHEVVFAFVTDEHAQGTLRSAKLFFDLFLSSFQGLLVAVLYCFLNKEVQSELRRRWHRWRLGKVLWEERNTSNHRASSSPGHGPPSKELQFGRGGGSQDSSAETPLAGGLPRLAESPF

hGIPR [3] = target: T1, hGIPR; assay: Functional cAMP activation in the presence of 0.1% casein (no HSA); conditions: read-out: Relative cAMP EC50, hGIPR;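 for Relative cAMP EC50, hGIPR: intracellular cAMP rise after 30 min at 37 °C read by HTRF against a standard curve, scaled between buffer alone (0%) and top control ligand concentration (100%), four-parameter fit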;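 for Relative cAMP EC50, hGLP-1R: intracellular cAMP rise after 30 min at 37 °C read by HTRF, normalized between buffer only (0%) and maximal control ligand (100%), four-parameter variable-slope fit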;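 for Relative cAMP EC50, hGcgR: intracellular cAMP rise after 30 min at 37 °C, read by HTRF against a cAMP standard curve, scaled from buffer only (0%) to maximal control ligand response (100%)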
hGLP-1R [4] = target: T2, hGLP-1R; assay: as above; conditions: read-out: Relative cAMP EC50, hGLP-1R
hGcgR = hGcgR (Homo sapiens, UniProt P47871); assay: as above; conditions: read-out: Relative cAMP EC50, hGcgR;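 note: intracellular cAMP rise after 30 min at 37 °C, read by HTRF against a cAMP standard curve, scaled from buffer only (0%) to maximal control ligand response (100%)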
Chain of hGcgR (P47871 26-477): as above

[5] = 0.1% casein, no HSA, geometric mean

Substance	EC50 (hGIPR [1]) [nM]	EC50 (hGLP-1R [2]) [nM]	EC50 (human GcgR) [nM]	EC50 (hGIPR [3]) [nM]	EC50 (hGLP-1R [4]) [nM]	EC50 (hGcgR) [nM]	EC50 (hGIPR [3]; [5]) [nM]	EC50 (hGLP-1R [4]; [5]) [nM]	EC50 (hGcgR; [5]) [nM]
H-Y[Aib]QGT[αMePhe(2-F)]TSD[4Pal]SI[αMeL]LD[Orn]K([AEEA-γGlu-C18 diacid])AQ[αMe4Pal][Orn]FI[dE][αMeY]LIEGGPSSGDPPPETE-NH2 [Example 730]	1.29	33	216	0.0122	0.248	2.46	–	–	–
H-Y[Aib]QGT[αMePhe(2-F)]TSD[4Pal]SI[αMeL]LD[Orn]K([AEEA-γGlu-C18 diacid])AQ[αMe4Pal][Orn]FI[dE][αMeY]LIEGGPSSGEPPPEAE-NH2 [Example 676]	1.07	24.4	208	0.0106	0.267	2.34	–	–	–
H-Y[Aib]QGT[αMePhe(2-F)]TSD[4Pal]SI[αMeL]LD[Orn]K([AEEA-γGlu-C18 diacid])AQ[αMe4Pal][Orn]FI[dE][αMeY]LIEGGPSSGEPPPEGTGE-NH2 [Example 680]	1.04	28.6	256	0.01	0.246	2	–	–	–
H-Y[Aib]QGT[αMePhe(2-F)]TSD[4Pal]SI[αMeL]LD[Orn]K([AEEA-γGlu-C18 diacid])AQ[αMe4Pal][Orn]FI[dE][αMeY]LIEGGPSSGEPPPESE-NH2 [Example 677]	1.03	20.8	190	0.0111	0.252	2.21	–	–	–
H-Y[Aib]QGT[αMePhe(2-F)]TSD[4Pal]SI[αMeL]LD[Orn]K([AEEA-γGlu-C18 diacid])AQ[αMe4Pal][Orn]FI[dE][αMeY]LIEGGPSSGEPPPESEE-NH2 [Example 753]	1.86	38.2	351	0.0127	0.271	2.7	–	–	–
H-Y[Aib]QGT[αMePhe(2-F)]TSD[4Pal]SI[αMeL]LD[Orn]K([AEEA-γGlu-C18 diacid])AQ[αMe4Pal][Orn]FI[dE][αMeY]LIEGGPSSGEPPPETE-NH2 [Example 678]	0.929	22.1	245	0.0132	0.251	2.28	–	–	–
H-Y[Aib]QGT[αMePhe(2-F)]TSD[4Pal]SI[αMeL]LD[Orn]K([AEEA-γGlu-C18 diacid])AQ[αMe4Pal][Orn]FI[dE][αMeY]LIEGGPSSGEPPPSGS-NH2 [Example 706]	0.913	23.7	240	0.00911	0.19	2.18	–	–	–
H-Y[Aib]QGT[αMePhe(2-F)]TSD[4Pal]SI[αMeL]LD[Orn]K([γGlu-γGlu-C18 diacid])AQ[αMe4Pal]EFI[dE][αMeY]LAEGGPSSGAPPPSGS-NH2 [Example 646]	1.09	90.5	1260	0.0336	2.58	23.1	–	–	–
H-Y[Aib]QGT[αMePhe(2-F)]TSD[4Pal]SI[αMeL]LD[Orn]K([γGlu-γGlu-C18 diacid])AQ[αMe4Pal]EFI[dE][αMeY]LIEGGPSSGAPPPSGE-NH2 [Example 616]	0.467	28.9	734	0.00727	0.29	6.58	–	–	–
H-Y[Aib]QGT[αMePhe(2-F)]TSD[4Pal]SI[αMeL]LD[Orn]K([γGlu-γGlu-C18 diacid])AQ[αMe4Pal]EFI[dE][αMeY]LLEGGPSSGAPPPSGE-NH2 [Example 617]	0.643	67.4	547	0.00849	0.534	4.56	–	–	–
H-Y[Aib]QGT[αMePhe(2-F)]TSD[4Pal]SI[αMeL]LD[Orn]K([γGlu-γGlu-C18 diacid])AQ[αMe4Pal]EFI[dE][αMeY]LQEGGPSSGAPPPSGS-NH2 [Example 647]	0.691	36.1	1210	0.0177	0.872	18.8	–	–	–
H-Y[Aib]QGT[αMePhe(2-F)]TSD[4Pal]SI[αMeL]LD[Orn]K([γGlu-γGlu-C18 diacid])AQ[αMe4Pal]EFI[dE][αMeY]LQEGGPSSGEPPPSGS-NH2 [Example 649]	0.76	62.9	669	0.0221	1.35	21.2	–	–	–
H-Y[Aib]QGT[αMePhe(2-F)]TSD[4Pal]SI[αMeL]LD[Orn]K([γGlu-γGlu-C18 diacid])AQ[αMe4Pal][Orn]FI[dE]YLIEGGPSSGEPPPEGT-NH2 [Example 541]	1.28	38.7	520	0.0213	0.74	4.26	–	–	–
H-Y[Aib]QGT[αMePhe(2-F)]TSD[4Pal]SI[αMeL]LD[Orn]K([γGlu-γGlu-C18 diacid])AQ[αMe4Pal][Orn]FI[dE][αMeY]LIEGGPSSGEPPPEAE-NH2 [Example 684]	0.436	14.2	143	0.00843	0.28	2.16	–	–	–
H-Y[Aib]QGT[αMePhe(2-F)]TSD[4Pal]SI[αMeL]LD[Orn]K([γGlu-γGlu-C18 diacid])AQ[αMe4Pal][Orn]FI[dE][αMeY]LIEGGPSSGEPPPEEG-NH2 [Example 681]	0.395	14.2	104	0.00663	0.257	1.35	–	–	–
H-Y[Aib]QGT[αMePhe(2-F)]TSD[4Pal]SI[αMeL]LD[Orn]K([γGlu-γGlu-C18 diacid])AQ[αMe4Pal][Orn]FI[dE][αMeY]LIEGGPSSGEPPPEGE-NH2 [Example 683]	0.492	14.3	137	0.00798	0.214	1.57	–	–	–
H-Y[Aib]QGT[αMePhe(2-F)]TSD[4Pal]SI[αMeL]LD[Orn]K([γGlu-γGlu-C18 diacid])AQ[αMe4Pal][Orn]FI[dE][αMeY]LIEGGPSSGEPPPEGTE-NH2 [Example 687]	0.595	21.3	157	0.00903	0.277	2.41	–	–	–
H-Y[Aib]QGT[αMePhe(2-F)]TSD[4Pal]SI[αMeL]LD[Orn]K([γGlu-γGlu-C18 diacid])AQ[αMe4Pal][Orn]FI[dE][αMeY]LIEGGPSSGEPPPEGTGE-NH2 [Example 688]	0.61	19.5	182	0.00881	0.304	2.06	–	–	–
H-Y[Aib]QGT[αMePhe(2-F)]TSD[4Pal]SI[αMeL]LD[Orn]K([γGlu-γGlu-C18 diacid])AQ[αMe4Pal][Orn]FI[dE][αMeY]LIEGGPSSGEPPPESE-NH2 [Example 685]	0.497	18.7	160	0.00809	0.308	2.18	–	–	–
H-Y[Aib]QGT[αMePhe(2-F)]TSD[4Pal]SI[αMeL]LD[Orn]K([γGlu-γGlu-C18 diacid])AQ[αMe4Pal][Orn]FI[dE][αMeY]LIEGGPSSGEPPPSGE-NH2 [Example 682]	0.415	14	127	0.00661	0.212	1.91	–	–	–
H-Y[Aib]QGT[αMePhe(2-F)]TSD[4Pal]SI[αMeL]LD[Orn][Orn]([γGlu-γGlu-C18 diacid])AQ[αMe4Pal][Orn]FI[dE][αMeY]LIEGGPSSGEPPPETE-NH2 [Example 1209]	0.565	37.7	124	–	–	–	0.00819	0.41	0.97
H-Y[Aib]QGT[αMePhe(2-F)]TSD[4Pal][αMeS]ILLD[Orn]K([γGlu-γGlu-C18 diacid])AQ[Aib][Orn]FI[dE]YLIEGGPSSGEPPPEGAEE-NH2 [Example 604]	4.84	51	427	0.161	0.705	5.5	–	–	–
H-Y[Aib]QGT[αMePhe(2-F)]TSD[4Pal][αMeS]ILLD[Orn]K([γGlu-γGlu-C18 diacid])AQ[Aib][Orn]FI[dE]YLIEGGPSSGEPPPEGSEE-NH2 [Example 603]	4.99	49.5	419	0.102	0.688	5.43	–	–	–
H-Y[Aib]QGT[αMePhe(2-F)]TSD[4Pal][αMeS]ILLD[Orn]K([γGlu-γGlu-C18 diacid])AQ[Aib][Orn]FI[dE]YLIEGGPSSGEPPPEGTEE-NH2 [Example 556]	5.51	47.4	366	0.0866	0.561	4.14	–	–	–
H-Y[Aib]QGT[αMePhe(2-F)]TSD[4Pal][αMeS]ILLD[Orn]K([γGlu-γGlu-C18 diacid])AQ[Aib][Orn]FI[dE]YLIEGGPSSGEPPPEGTEEE-NH2 [Example 577]	10	81.8	937	0.103	0.931	6.47	–	–	–
